In patent US8071588B2, “Dual pharmacophores—PDE4-muscarinic antagonistics” (Glaxo Group Limited, priority 2008, dated 2011):

Columns and labels:
Human recombinant PDE4B = target: T1, Human recombinant PDE4B (Homo sapiens, UniProt Q07343); assay: Inhibition of PDE activity: luciferase-coupled PDE assay (PDE4B); format: biochemical; details: active if pIC50 of about 6 to 10.4 or greater against PDE4B; listed examples found to be the most active
T1 construct: made in house; host or cells: Saccharomyces cerevisiae strain GL62
T1 sequence (Q07343 1-564 isoform Q07343-2): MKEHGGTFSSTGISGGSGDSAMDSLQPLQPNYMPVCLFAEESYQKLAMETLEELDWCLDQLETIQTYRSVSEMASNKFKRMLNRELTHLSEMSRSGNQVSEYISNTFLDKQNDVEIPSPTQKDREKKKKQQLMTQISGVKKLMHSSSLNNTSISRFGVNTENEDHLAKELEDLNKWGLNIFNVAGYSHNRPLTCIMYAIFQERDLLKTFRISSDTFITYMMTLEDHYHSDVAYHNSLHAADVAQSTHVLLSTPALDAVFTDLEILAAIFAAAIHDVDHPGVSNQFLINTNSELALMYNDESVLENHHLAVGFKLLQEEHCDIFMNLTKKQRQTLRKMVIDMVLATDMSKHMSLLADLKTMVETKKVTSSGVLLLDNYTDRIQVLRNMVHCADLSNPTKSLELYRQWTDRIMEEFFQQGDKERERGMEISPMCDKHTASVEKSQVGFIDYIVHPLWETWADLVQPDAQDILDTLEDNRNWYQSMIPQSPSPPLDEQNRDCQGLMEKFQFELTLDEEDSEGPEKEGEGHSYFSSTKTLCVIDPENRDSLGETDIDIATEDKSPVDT
Source text: Human recombinant PDE4B, in particular the 2B splice variant thereof (HSPDE4B2B), is disclosed in WO 94/20079 and also in M. M. McLaughlin et al., “A low Km, rolipram-sensitive, cAMP-specific phosphodiesterase from human brain: cloning and expression of cDNA, biochemical characterization of recombinant protein, and tissue distribution of mRNA”, J. Biol. Chem., 1993, 268, 6470-6476. For example, in Example 1 of WO 94/20079, human recombinant PDE4B is described as being expressed in the PDE-deficient yeast Saccharomyces cerevisiae strain GL62. PDE4B expression is induced by the addition of 150 μM CuSO4.
For luminescence-coupled assay based screening the supernatant fractions of yeast cell lysates are subjected to Cibacron blue affinity chromatography, dialysis and desalting, to enrich for PDE4B and to remove components, e.g. ATP, able to interfere with the assay. Human recombinant PDE4D (HSPDE4D3A) is disclosed in P. A. Baecker et al., “Isolation of a cDNA encoding a human rolipram-sensitive cyclic AMP phosphodiesterase (PDE IVD)”, Gene, 1994, 138, 253-256. Expression of human PDE4D in yeast, and subsequent preparation of the recombinant protein for assay was as described for PDE4B.
Inhibition of PDE4B and PDE4D are measured using a luminescence-coupled assay system developed by Cambrex. This assay system couples the formation of AMP, derived from PDE4-catalyzed hydrolysis of cAMP, to the formation of ATP. The ATP is then used as a substrate for Luciferase and results in light as a signal output. […] The luminescence is then measured on a Viewlux imager (Perkin Elmer) using emission filters of 613/55 nm or 618/40 nm and a 5 second exposure. […] Curves were analyzed using ActivityBase and XL fit, and results are expressed as pIC50 values. […]
Curves were analyzed using ActivityBase and XLfit, and results are expressed as pIC50 values. […]

[1] = test system: M1, M2 (w/Gqi5) and M3 ACh receptors stably expressed in CHO cells; assay: Calcium mobilization (FLIPR) IC50 determination for antagonists, inhibition of ACh induced muscarinic receptor activation; format: cell-based, human; details: EC80 ACh, active if IC50 of between 33 uM and 10 nM or less, listed examples found to be the most active
Source text: Studies to determine the effectiveness of antagonists to cause blockade of functional intracellular calcium fluxes following agonist (ACh) treatment of cloned human receptors.
This system is used for characterizations of antagonist-receptor interactions using four distinct variations of the FLIPR methodology: (a) potency: IC50 determination, (b) potency: pA2 determination, (c) reversibility of antagonist-receptor interaction, or (d) confirmation of no functional agonist activity. Cell Source The human M1-M3 receptors are cloned and stably expressed in Chinese Hamster Ovary (CHO) cells. The M2 receptors are co-expressed with the chimeric G protein, Gqi5. […] The emitted fluorescence from all 96 wells is measured simultaneously using a cooled CCD camera. […] Experimental Protocols: Cell plating: A microtiter plate based calcium mobilization FLIPR (Fluorometric Imaging Plate Reader, Molecular Devices, Sunnyvale Calif., [Schroeder K S, Neagle, B D. FLIPR: a new instrument for accurate, high throughput optical screening. J. Biomol. Screen. 1996; 1:75.]) assay is used for the functional characterization of compounds against M1, M2 (w/Gqi5) and M3 ACh receptors stably expressed in CHO cells. […]

| activity in the PDE4B assay (pIC50) (Human recombinant PDE4B) | SMILES | activity in FLIPR antagonist IC50 assay (inhibition of ACh induced response) [1] |
| --- | --- | --- |
| most active | CCc1nc2c(cnn2CC)c(NC2CCOCC2)c1CNC(=O)CCC(=O)NCc1ccc(Cl)c(-c2cccc(CN3CCN[C@@H](C)C3)c2)c1 [Example 265, N-[(6-chloro-3′-{[(3S)-3-methyl-1-piperazinyl]methyl}-3-biphenylyl)methyl]-N′-{[1,6-diethyl-4-(tetrahydro-2H-pyran-4-ylamino)-1H-pyrazolo[3,4-b]pyridin-5-yl]methyl}butanediamide] |  |
|  | CCc1nc2c(cnn2CC)c(NC2CCOCC2)c1CNC(=O)CC(=O)NCc1cccc(-c2cccc(CN3CCCNCC3)c2)c1 [Example 180, N-{[1,6-Diethyl-4-(tetrahydro-2H-pyran-4-ylamino)-1H-pyrazolo[3,4-b]pyridin-5-yl]methyl}-N′-{[3′-(hexahydro-1H-1,4-diazepin-1-ylmethyl)-3-biphenylyl]methyl}propanediamide] | most active |
| most active | CCc1nc2c(cnn2CC)c(NC2CCOCC2)c1CNC(=O)CC(=O)NCc1ccc(F)c(-c2cccc(CN3C[C@@H](C)N[C@@H](C)C3)c2)c1 [Example 217, N-{[1,6-diethyl-4-(tetrahydro-2H-pyran-4-ylamino)-1H-pyrazolo[3,4-b]pyridin-5-yl]methyl}-N′-[(3′-{[(3R,5S)-3,5-dimethyl-1-piperazinyl]methyl}-6-fluoro-3-biphenylyl)methyl]propanediamide] |  |
|  | CCc1nc2c(cnn2CC)c(NC2CCOCC2)c1CNC(=O)CCCC(=O)NCc1ccc(F)c(-c2cccc(CN3C[C@@H]4C[C@@H]3CN4Cc3ccccc3)c2)c1 [Example 193, N-{[1,6-diethyl-4-(tetrahydro-2H-pyran-4-ylamino)-1H-pyrazolo[3,4-b]pyridin-5-yl]methyl}-N′-[(6-fluoro-3′-{[(1R,4S)-5-(phenylmethyl)-2,5-diazabicyclo[2.2.1]hept-2-yl]methyl}-3-biphenylyl)methyl]pentanediamide] | most active |
| most active | CCc1nc2c(cnn2CC)c(NC2CCOCC2)c1CNC(=O)CCC(=O)NCc1ccc(F)c(-c2cccc(CN3CCN[C@H](C)C3)c2)c1 [Example 267, N-{[1,6-diethyl-4-(tetrahydro-2H-pyran-4-ylamino)-1H-pyrazolo[3,4-b]pyridin-5-yl]methyl}-N′-[(6-fluoro-3′-{[(3R)-3-methyl-1-piperazinyl]methyl}-3-biphenylyl)methyl]butanediamide] |  |
